# Experimental data as given in patent publication US11286259B2, “Co-crystals of ribociclib and co-crystals of ribociclib monosuccinate, preparation method therefor, compositions thereof, and uses thereof” (Hangzhou SoliPharma Co., Ltd., priority 2017, dated 2022).
# Where two headings read alike, the source gives them in different places.
# Experiments:
# [1] = high humidity, mentioned in CN105085533A, cited from earlier work
# [2] = crystal form stability at high humidity; format: physicochemical
# [3] = water solubility test (apparent water solubility, HPLC detection); conditions: 10 mg in 10 mL deionized water, sonicated at 25° C. for 1 minute
# [4] = desiccator, 4 months, room temperature, relative humidity of 10% to 90%
# [5] = crystal stability test, samples placed at 80° C. for 24 hours, crystal form detection by XRPD; format: physicochemical; conditions: after being placed for 24 hours at 80° C.
# [6] = stability test in water, stirred at 25° C. for 24 hours, crystal form detection by XRPD; format: physicochemical; conditions: for Crystal Form: 100 mg in 5 mL deionized water, stirred at 25° C. for 24 hours, XRPD
# [7] = hygroscopicity, isothermal adsorption curve (weight gain versus relative humidity); format: physicochemical
# physchem = conditions: deionized water, 25 °C, thermodynamic from solid
# [8] = listed as co-crystal form of ribociclib monosuccinate and citric acid
smiles,measurement,setting,value
CN(C)C(=O)c1cc2cnc(Nc3ccc(N4CCNCC4)cn3)nc2n1C1CCCC1.O=C(O)CCC(=O)O [listing 1 of 2 here],sensitivity of the crystal form to humidity,[1],easily converts to other crystal forms at high humidity
same,sensitivity of the crystal form to humidity,[1]; listed as anhydrate crystal form,easily convert to other crystal forms at high humidity
CN(C)C(=O)c1cc2cnc(Nc3ccc(N4CCNCC4)cn3)nc2n1C1CCCC1.O=C(O)c1cc(=O)[nH]c(=O)[nH]1,crystal form at high humidity,[2],remains unchanged
same,Solubility,[3],110 µg/mL
same,"appearance, XRPD and melting point after storage",[4],remain unchanged
CN(C)C(=O)c1cc2cnc(Nc3ccc(N4CCNCC4)cn3)nc2n1C1CCCC1.O=C(O)CC(O)(CC(=O)O)C(=O)O.O=C(O)CCC(=O)O,Crystal Form,[5],Unchanged
same,Crystal Form,[5]; [8],remains unchanged
same,Crystal Form,[6]; [8],remains unchanged
same,Crystal Form,[6]; listed as co-crystal of ribociclib monosuccinateand citric acid,Unchanged
same,crystal form at high humidity,[2],remains unchanged
same,"appearance, XRPD and melting point after storage",[4],remain unchanged
CN(C)C(=O)c1cc2cnc(Nc3ccc(N4CCNCC4)cn3)nc2n1C1CCCC1.O=C(O)CCC(=O)O [listing 2 of 2 here],Crystal Form,[6],cannot maintain its original crystal form
same,crystal stability in water,"[6]; in water, conditions not given, found by the inventors",crystallinity decreased significantly in water
CN(C)C(=O)c1cc2cnc(Nc3ccc(N4CCNCC4)cn3)nc2n1C1CCCC1 [co-crystal of ribociclib and saccharin],Crystal Form,[5],Unchanged
same,Crystal Form,[5]; listed as co-crystal form of ribociclib and saccharin,remains unchanged
same,weight gain,[7]; relative humidity of 0-10%,0.04%
same,weight gain,[7]; relative humidity of 10 to 80%,0.45%
same,crystal form at high humidity,[2],remains unchanged
same,solubility at 1 min,physchem,~100 µg/mL
same,"appearance, XRPD and melting point after storage",[4],remain unchanged
